# Source: patent US8129371B2, “Thienopyrimidine and pyrazolopyrimidine compounds and their use as mTOR kinase and PI3 kinase inhibitors” (Wyeth LLC, priority 2007, dated 2012)
# Read-outs that look alike come from different tables or passages of the source.
# How the values were obtained:
# [1] = target: T1, Human mTOR (FLAG-TOR) (Homo sapiens, UniProt P42345); assay: Human mTOR kinase assay with purified enzyme, DELFIA format; format: biochemical
# T1 construct: FLAG
# Outline: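 DELFIA readout: Eu-anti-P(T389)-S6K antibody (40 ng/mL, 1 h) on captured His6-S6K from the stopped reaction. Kinase step used purified FLAG-tagged human mTOR with test compound in HEPES (pH 7.4)/MnCl2/DTT buffer, 2 h at room temperature (linear 1–6 h), terminated by EDTA/EGTA.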
# [2] = target: T2, PI3K (Homo sapiens, UniProt P42336); assay: Fluorescence polarization assay for PI3K; format: biochemical; conditions: read-out: PI3 Kinase α IC50
# T2 construct: PI3 Kinase α IC50; other: PI3 Kinase α; other: PI3 Kinase α isoform, fluorescence polarization
# Outline: (§1)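 Fluorescence-polarization competition readout: after 30–60 min of PIP2/ATP turnover in 1% DMSO, a stop mix with GST-GRP (70 nM) and red probe (10 nM) was added.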
# [3] = target: T3, PI3K (Homo sapiens, UniProt P48736); assay: Fluorescence polarization assay for PI3K; format: biochemical; conditions: read-out: PI3 Kinase γ IC50
# T3 construct: PI3 Kinase γ IC50; other: PI3 Kinase γ; other: PI3 Kinase γ isoform, fluorescence polarization
# Outline: as §1
# [4] = test system: prostate line LNCap; assay: In vitro cell culture growth assay (MTS), LNCap; format: cell-based; conditions: Homo sapiens, LNCaP, 72 h, LNCap cells, three days after drug treatment
# Outline: (§2)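 Viable cell density is assessed three days after inhibitor addition via MTS conversion, normalised to vehicle-treated cells.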
# [5] = test system: breast line MDA468; assay: In vitro cell culture growth assay (MTS), MDA468; format: cell-based; conditions: Homo sapiens, 72 h, MDA468 cells, three days after drug treatment
# Outline: as §2
# [6] = purified human mTOR enzyme, DELFIA format
# [7] = PI3 Kinase α isoform, fluorescence polarization
# [8] = PI3 Kinase γ isoform, fluorescence polarization
# T3 sequence (P48736 whole entry, canonical isoform): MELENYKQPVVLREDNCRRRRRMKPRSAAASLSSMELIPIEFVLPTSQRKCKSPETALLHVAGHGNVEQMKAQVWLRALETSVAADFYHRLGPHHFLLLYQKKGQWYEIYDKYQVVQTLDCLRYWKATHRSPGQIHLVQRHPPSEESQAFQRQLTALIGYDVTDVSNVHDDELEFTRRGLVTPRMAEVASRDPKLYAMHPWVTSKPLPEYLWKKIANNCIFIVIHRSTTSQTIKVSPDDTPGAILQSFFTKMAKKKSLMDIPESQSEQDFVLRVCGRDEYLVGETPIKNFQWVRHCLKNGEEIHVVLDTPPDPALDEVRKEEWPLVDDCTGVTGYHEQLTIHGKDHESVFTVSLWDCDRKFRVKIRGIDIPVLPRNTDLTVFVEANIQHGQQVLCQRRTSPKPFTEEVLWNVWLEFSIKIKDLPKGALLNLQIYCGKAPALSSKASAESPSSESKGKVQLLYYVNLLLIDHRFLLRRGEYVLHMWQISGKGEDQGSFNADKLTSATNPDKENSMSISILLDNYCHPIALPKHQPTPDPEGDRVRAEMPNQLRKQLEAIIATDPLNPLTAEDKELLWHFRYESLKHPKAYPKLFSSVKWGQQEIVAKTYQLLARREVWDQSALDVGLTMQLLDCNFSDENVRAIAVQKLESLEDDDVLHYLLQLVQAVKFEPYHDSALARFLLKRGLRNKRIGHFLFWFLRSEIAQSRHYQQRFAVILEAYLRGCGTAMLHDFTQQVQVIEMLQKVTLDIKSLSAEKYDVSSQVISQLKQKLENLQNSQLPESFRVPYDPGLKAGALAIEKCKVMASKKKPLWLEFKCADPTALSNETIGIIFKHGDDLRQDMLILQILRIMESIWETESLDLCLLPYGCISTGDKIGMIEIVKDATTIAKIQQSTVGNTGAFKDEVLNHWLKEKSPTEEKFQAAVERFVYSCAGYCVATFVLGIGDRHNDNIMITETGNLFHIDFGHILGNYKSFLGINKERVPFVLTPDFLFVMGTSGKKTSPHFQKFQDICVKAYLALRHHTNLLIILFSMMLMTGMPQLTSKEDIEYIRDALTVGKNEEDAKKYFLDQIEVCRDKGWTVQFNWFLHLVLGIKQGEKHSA
# T2 sequence (P42336 whole entry, canonical isoform): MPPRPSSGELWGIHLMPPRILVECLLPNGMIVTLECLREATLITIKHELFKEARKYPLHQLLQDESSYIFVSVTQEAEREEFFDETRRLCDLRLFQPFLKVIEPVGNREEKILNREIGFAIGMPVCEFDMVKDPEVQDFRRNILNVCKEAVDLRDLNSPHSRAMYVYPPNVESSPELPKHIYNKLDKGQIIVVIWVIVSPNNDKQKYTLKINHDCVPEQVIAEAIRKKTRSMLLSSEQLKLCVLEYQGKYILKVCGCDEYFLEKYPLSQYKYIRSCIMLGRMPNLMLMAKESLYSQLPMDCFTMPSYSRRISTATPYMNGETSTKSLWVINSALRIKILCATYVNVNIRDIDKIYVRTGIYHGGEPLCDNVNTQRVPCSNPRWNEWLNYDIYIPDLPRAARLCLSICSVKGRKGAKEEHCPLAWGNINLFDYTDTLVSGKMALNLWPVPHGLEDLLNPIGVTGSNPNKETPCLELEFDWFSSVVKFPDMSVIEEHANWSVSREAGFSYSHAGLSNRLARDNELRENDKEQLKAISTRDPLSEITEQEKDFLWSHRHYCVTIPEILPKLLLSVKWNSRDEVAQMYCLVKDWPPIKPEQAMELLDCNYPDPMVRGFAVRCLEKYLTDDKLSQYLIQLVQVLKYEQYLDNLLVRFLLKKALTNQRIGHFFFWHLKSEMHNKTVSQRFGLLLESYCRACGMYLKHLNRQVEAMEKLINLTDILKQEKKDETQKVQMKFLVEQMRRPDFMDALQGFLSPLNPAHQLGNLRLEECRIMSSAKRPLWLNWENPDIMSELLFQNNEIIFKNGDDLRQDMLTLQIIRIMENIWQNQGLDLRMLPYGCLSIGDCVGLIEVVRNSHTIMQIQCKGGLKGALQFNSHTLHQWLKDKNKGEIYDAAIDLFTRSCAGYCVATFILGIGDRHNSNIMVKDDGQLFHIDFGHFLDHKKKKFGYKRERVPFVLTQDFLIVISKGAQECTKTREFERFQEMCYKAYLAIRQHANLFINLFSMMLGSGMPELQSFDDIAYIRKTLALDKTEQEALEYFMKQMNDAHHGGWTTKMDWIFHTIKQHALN
SMILES,"IC50 [1, 6] [nM]","IC50 [2, 7] [nM]","IC50 [3, 8] [nM]",IC50 [4] [nM],IC50 [1] [nM],IC50 ([2]; PI3 Kinase α) [nM],IC50 ([3]; PI3 Kinase γ) [nM],IC50 [5] [nM]
"COC1CCC(n2ncc3c(N4CC5CCC(C4)O5)nc(-c4ccc(NC(=O)Nc5ccc(C(N)=O)cc5)cc4)nc32)CC1 (stereo not shown) [Example 306, 4-[({4-[1-(4-methoxycyclohexyl)-4-(8-oxa-3-azabicyclo[3.2.1]oct-3-yl)-1H-pyrazolo[3,4-d]pyrimidin-6-yl]phenyl}carbamoyl)amino]benzamide]",0.079,88,1270,< 1,–,–,–,8
"CCNC(=O)Nc1ccc(-c2nc(N3CC4CCC(C3)O4)c3cnn(C)c3n2)cc1 [Example 51, 1-ethyl-3-{4-[1-methyl-4-(8-oxa-3-azabicyclo[3.2.1]oct-3-yl)-1H-pyrazolo[3,4-d]pyrimidin-6-yl]phenyl}urea]",–,–,–,46,1.6,799,7910,390
"COC1CCC(n2ncc3c(N4CC5CCC(C4)O5)nc(-c4ccc(NC(=O)Nc5ccncc5)cc4)nc32)CC1 (stereo not shown) [Example 303, 1-{4-[1-(4-methoxycyclohexyl)-4-(8-oxa-3-azabicyclo[3.2.1]oct-3-yl)-1H-pyrazolo[3,4-d]pyrimidin-6-yl]phenyl}-3-pyridin-4-ylurea]",0.145,164,845,< 1,–,–,–,1
"c1cc2cc(-c3nc(N4CC5CCC(C4)O5)c4cnn(C5CCC6(CC5)OCCO6)c4n3)ccc2[nH]1 [Example 388, 1-(1,4-dioxaspiro[4.5]dec-8-yl)-6-(1H-indol-5-yl)-4-(8-oxa-3-azabicyclo[3.2.1]oct-3-yl)-1H-pyrazolo[3,4-d]pyrimidine]",12.5,10500,> 10000,330,–,–,–,2000
"CN(C)c1cccc(NC(=O)Nc2ccc(-c3nc(N4CC5CCC(C4)O5)c4cnn(CC(F)(F)F)c4n3)cc2)c1 [Example 257, 1-[3-(dimethylamino)phenyl]-3-{4-[4-(8-oxa-3-azabicyclo[3.2.1]oct-3-yl)-1-(2,2,2-trifluoroethyl)-1H-pyrazolo[3,4-d]pyrimidin-6-yl]phenyl}urea]",–,–,–,< 1,1.8,344,4240,3
"COC1CCC(n2ncc3c(N4CC5CCC(C4)O5)nc(-c4ccc(NC(=O)OCCO)cc4)nc32)CC1 (stereo not shown) [Example 311, 2-hydroxyethyl {4-[1-(4-methoxycyclohexyl)-4-(8-oxa-3-azabicyclo[3.2.1]oct-3-yl)-1H-pyrazolo[3,4-d]pyrimidin-6-yl]phenyl}carbamate]",0.86,3840,> 10000,2,–,–,–,120
"CCn1ncc2c(N3CC4CCC(C3)O4)nc(-c3ccc(NC(=O)Nc4ccncc4)cc3)nc21 [Example 48, 1-{4-[1-ethyl-4-(8-oxa-3-azabicyclo[3.2.1]oct-3-yl)-1H-pyrazolo[3,4-d]pyrimidin-6-yl]phenyl}-3-pyridin-4-ylurea]",–,–,–,< 0.8,0.16,134,1120,< 0.8
"O=C(Nc1ccc(-c2nc(N3CC4CCC(C3)O4)c3cnn(C4CCC5(CC4)OCCO5)c3n2)cc1)OCC(F)(F)F [Example 129, 2,2,2-trifluoroethyl {4-[1-(1,4-dioxaspiro[4.5]dec-8-yl)-4-(8-oxa-3-azabicyclo[3.2.1]oct-3-yl)-1H-pyrazolo[3,4-d]pyrimidin-6-yl]phenyl}carbamate]",–,–,–,800,10.4,> 10000,> 10000,4900
"CN(C)CCn1ncc2c(N3CC4CCC(C3)O4)nc(-c3ccc(NC(=O)Nc4ccccc4)cc3)nc21 [Example 156, 1-(4-{1-[2-(dimethylamino)ethyl]-4-(8-oxa-3-azabicyclo[3.2.1]oct-3-yl)-1H-pyrazolo[3,4-d]pyrimidin-6-yl}phenyl)-3-phenylurea]",–,–,–,1,2.65,160,1530,68
"CCn1nc(Br)c2c(N3CC4CCC(C3)O4)nc(-c3ccc(NC(=O)NC)cc3)nc21 [Example 397, 1-{4-[3-bromo-1-ethyl-4-(8-oxa-3-azabicyclo[3.2.1]oct-3-yl)-1H-pyrazolo[3,4-d]pyrimidin-6-yl]phenyl}-3-methylurea]",3.1,317,5630,210,–,–,–,1500
"Cn1ncc2c(N3CC4CCC(C3)O4)nc(-c3ccc(NC(=O)Nc4cccnc4)cc3)nc21 [Example 56, 1-{4-[1-methyl-4-(8-oxa-3-azabicyclo[3.2.1]oct-3-yl)-1H-pyrazolo[3,4-d]pyrimidin-6-yl]phenyl}-3-pyridin-3-ylurea]",–,–,–,0.7,0.27,227,579,5
"CCNC(=O)Nc1ccc(-c2nc(N3CC4CCC(C3)O4)c3sc(CN4CCN(S(C)(=O)=O)CC4)cc3n2)cc1 [Example 430, 1-ethyl-3-{4-[6-{[4-(methylsulfonyl)piperazin-1-yl]methyl}-4-(8-oxa-3-azabicyclo[3.2.1]oct-3-yl)thieno[3,2-d]pyrimidin-2-yl]phenyl}urea]",1.29,113,1630,36,–,–,–,90
"CN1CCN(c2ccc(NC(=O)Nc3ccc(-c4nc(N5CC6CCC(C5)O6)c5cnn(CCO)c5n4)cc3)cc2)CC1 [Example 203, 1-{4-[1-(2-hydroxyethyl)-4-(8-oxa-3-azabicyclo[3.2.1]oct-3-yl)-1H-pyrazolo[3,4-d]pyrimidin-6-yl]phenyl}-3-[4-(4-methylpiperazin-1-yl)phenyl]urea]",–,–,–,1,1.07,104,1140,2
"CCn1ncc2c(N3CC4CCC(C3)O4)nc(-c3ccc(NC(=O)Nc4ccc(OCCN(C)C)cc4)cc3)nc21 [Example 186, 1-{4-[2-(dimethylamino)ethoxy]phenyl}-3-{4-[1-ethyl-4-(8-oxa-3-azabicyclo[3.2.1]oct-3-yl)-1H-pyrazolo[3,4-d]pyrimidin-6-yl]phenyl}urea]",–,–,–,< 1,0.835,136,1780,8

# Continued by falling IC50 [4], values first:
"IC50 [1, 6] [nM]","IC50 [2, 7] [nM]","IC50 [3, 8] [nM]",IC50 [4] [nM],IC50 [1] [nM],IC50 ([2]; PI3 Kinase α) [nM],IC50 ([3]; PI3 Kinase γ) [nM],SMILES,IC50 [5] [nM]
91,4630,> 10000,2500,–,–,–,"CNC(=O)Nc1ccc(-c2nc(N3C[C@H]4C[C@@H]3CO4)c3cnn(CC(F)(F)F)c3n2)cc1 [Example 341, 1-methyl-3-(4-{4-[(1R,4R)-2-oxa-5-azabicyclo[2.2.1]hept-5-yl]-1-(2,2,2-trifluoroethyl)-1H-pyrazolo[3,4-d]pyrimidin-6-yl}phenyl)urea]",5000
–,–,–,650,8,> 10000,> 10000,"COC(=O)Nc1ccc(-c2nc(N3CC4CCC(C3)O4)c3cnn(CC(F)(F)F)c3n2)cc1 [Example 2, methyl {4-[4-(8-oxa-3-azabicyclo[3.2.1]oct-3-yl)-1-(2,2,2-trifluoroethyl)-1H-pyrazolo[3,4-d]pyrimidin-6-yl]phenyl}carbamate]",680
–,–,–,72,1.4,845,8820,"Cn1ncc2c(N3CC4CCC(C3)O4)nc(-c3ccc(NC(=O)NC4CC4)cc3)nc21 [Example 53, 1-cyclopropyl-3-{4-[1-methyl-4-(8-oxa-3-azabicyclo[3.2.1]oct-3-yl)-1H-pyrazolo[3,4-d]pyrimidin-6-yl]phenyl}urea]",800
–,–,–,30,0.8,396,7020,"CC(C)C(=O)N1CCC(n2ncc3c(N4CC5CCC(C4)O5)nc(-c4ccc(NC(=O)Nc5ccccc5)cc4)nc32)CC1 [Example 87, 1-{4-[1-(1-isobutyrylpiperidin-4-yl)-4-(8-oxa-3-azabicyclo[3.2.1]oct-3-yl)-1H-pyrazolo[3,4-d]pyrimidin-6-yl]phenyl}-3-phenylurea]",120
–,–,–,28,0.88,43,1290,"CN(C)CCn1ncc2c(N3CC4CCC(C3)O4)nc(-c3ccc(NC(=O)Nc4ccc(CO)cc4)cc3)nc21 [Example 163, 1-(4-{1-[2-(dimethylamino)ethyl]-4-(8-oxa-3-azabicyclo[3.2.1]oct-3-yl)-1H-pyrazolo[3,4-d]pyrimidin-6-yl}phenyl)-3-[4-(hydroxymethyl)phenyl]urea]",90
–,–,–,2,0.745,648,> 10000,"CNC(=O)Nc1ccc(-c2nc(N3CC4CCC(C3)O4)c3cnn(C4CCC(OC)(OC)CC4)c3n2)cc1 [Example 150, 1-{4-[1-(4,4-dimethoxycyclohexyl)-4-(8-oxa-3-azabicyclo[3.2.1]oct-3-yl)-1H-pyrazolo[3,4-d]pyrimidin-6-yl]phenyl}-3-methylurea]",35
